Laboratory results taken from US7084268B1, “Carbapenem compound crystals and interjection preparations” (Eisai Co., Ltd., priority 1999, dated 2006).
Structures can show the parent of a compound that is named as a salt.

What was measured:
Type in all cases: physicochemical
[1] = Storage of crystals in bottles without caps at various relative humidity, with or without oxygen absorbent; conditions: 25° C., 2 weeks, listed as monohydrate crystals, monohydrochloride monohydrate
[2] = Color difference after degasification of vial at various pressures and replacement by nitrogen; conditions: 60° C., n = 6
Method: As the monohydrate, the powdery charged preparations for injection of the novel carbapenem crystals (25 mg/vial) obtained by degasification of the air in the vial at 100, 10, 1, 0.1 and 0.01 hPa (hectopascal) respectively and subsequent replacement by nitrogen according to the method in Example 2-3 (replacement by nitrogen) were stored at 60° C. for 1 or 4 weeks (N=6) and then measured for their color difference (ΔE). The oxygen concentrations in the preparations in vials degasified at 100, 10, 1, 0.1, 0.01 hPa (hectopascal) were measured by an oxygen analyzer (RO-101, Iizima Kogyo). As the trihydrate, the powdery charged preparations of the novel carbapenem hydrochloride crystals (25 mg/vial) obtained in the method in Example 1-9 (replacement by nitrogen) were degasified in the same manner, stored at 80° C. for 1 week (N=6) and then measured for their color difference (ΔE). As the control, the powdery charged preparation of the novel carbapenem hydrochloride crystals (25 mg/vial) subjected to neither degasification nor replacement by nitrogen was used.

[3] = Solubility in 62.5% (v/v) aqueous organic solvents, quantification in HPLC; conditions: for solubility at 30 min: aqueous organic solvent, 20 °C, aqueous with cosolvent or surfactant or cyclodextrin, thermodynamic from solid
Method: The solubility of (+)-(1R,5S,6S)-6-[(R)-1-hydroxyethyl]-1-methyl-2-[(2S,4S)-2-[(3R)-pyrrolidine-3-yl-(R)-hydroxymethyl]pyrrolidine-4-yl]thio-1-carbapen-2-em-3-carboxylic acid monohydrochloride monohydrate and trihydrate in various aqueous organic solvents at a concentration of 62.5% (v/v) in water at 20° C. was determined by HPLC in the following manner.

[4] = Storage of crystals in bottles without caps at various relative humidity, with or without oxygen absorbent; conditions: for water content (hygroscopicity): 25° C., 2 weeks, listed as monohydrate crystals, monohydrochloride monohydrate
Method: The novel carbapenem hydrochloride crystals were weighed in 25 mL wide-mouthed glass bottles (30 mg/bottle), and in the bottles without caps, the monohydrate was stored for 1 week at 40° C. at a relative humidity of 0%, 19.2%, 53% and 75%, and the trihydrate was stored for 2 weeks at 25° C. at a relative humidity of 11%, 33%, 51%, 75% and 93%. Then, the crystals were measured for their color difference (ΔE), water content, powdery X-ray diffraction pattern, and content of residual carbapenem. The monohydrate was also examined in the presence or absence of an oxygen absorbent (trade name: Ageless, produced by Mitsubishi Gas Chemical Co., Ltd.) during storage at each relative humidity. The oxygen absorbent makes oxygen-free conditions under which the preparation is placed.

[5] = 40° C., 1 week, relative humidity 0%, oxygen absorbent absence
[6] = 40° C., 1 week, relative humidity 0%, oxygen absorbent presence
[7] = 40° C., 1 week, relative humidity 19.2%, oxygen absorbent absence
[8] = 40° C., 1 week, relative humidity 19.2%, oxygen absorbent presence
[9] = 40° C., 1 week, relative humidity 53%, oxygen absorbent absence
[10] = 40° C., 1 week, relative humidity 53%, oxygen absorbent presence
[11] = 40° C., 1 week, relative humidity 75%, oxygen absorbent absence
[12] = 40° C., 1 week, relative humidity 75%, oxygen absorbent presence
[13] = monohydrate crystals, initial stage

water content (hygroscopicity) ([1]; relative humidity 11%): 5.0% | water content (hygroscopicity) ([1]; relative humidity 75%): 6.2% | water content (hygroscopicity) ([1]; relative humidity 93%): 8.4% | color difference (ΔE) ([2]; control: neither degasification nor replacement by nitrogen, 1 week): 7.37 | color difference (ΔE) ([2]; control: neither degasification nor replacement by nitrogen, 4 weeks): 14.94 | color difference (ΔE) ([2]; vial degasified at 0.01 hPa (oxygen concentration 0.24 ± 0.03%), replaced by nitrogen, 1 week): 3.11 | color difference (ΔE) ([2]; vial degasified at 0.01 hPa (oxygen concentration 0.24 ± 0.03%), replaced by nitrogen, 4 weeks): 4.91 | color difference (ΔE) ([2]; vial degasified at 0.1 hPa (oxygen concentration 0.21 ± 0.01%), replaced by nitrogen, 1 week): 2.28 | color difference (ΔE) ([2]; vial degasified at 0.1 hPa (oxygen concentration 0.21 ± 0.01%), replaced by nitrogen, 4 weeks): 4.98 | color difference (ΔE) ([2]; vial degasified at 1 hPa (oxygen concentration 0.24 ± 0.04%), replaced by nitrogen, 1 week): 2.62 | color difference (ΔE) ([2]; vial degasified at 1 hPa (oxygen concentration 0.24 ± 0.04%), replaced by nitrogen, 4 weeks): 4.51 | color difference (ΔE) ([2]; vial degasified at 10 hPa (oxygen concentration 0.29 ± 0.08%), replaced by nitrogen, 1 week): 2.40 | color difference (ΔE) ([2]; vial degasified at 10 hPa (oxygen concentration 0.29 ± 0.08%), replaced by nitrogen, 4 weeks): 5.69 | color difference (ΔE) ([2]; vial degasified at 100 hPa (oxygen concentration 3.01 ± 1.12%), replaced by nitrogen, 1 week): 2.85 | color difference (ΔE) ([2]; vial degasified at 100 hPa (oxygen concentration 3.01 ± 1.12%), replaced by nitrogen, 4 weeks): 8.02 | solubility ([3]; 62.5% (v/v) diethylene glycol monoethyl ether in water, 20° C., 30 minutes, monohydrochloride monohydrate): 6560 µg/mL | solubility at 30 min ([3]; 62.5% (v/v) 1-ethoxy-2-propanol in water): 5060 µg/mL | solubility at 30 min ([3]; 62.5% (v/v) 1-methoxy-2-propanol in water): 4120 µg/mL | solubility at 30 min ([3]; 62.5% (v/v) 2-ethoxyethanol in water): 6740 µg/mL | solubility at 30 min ([3]; 62.5% (v/v) 2-isopropoxyethanol in water): 6030 µg/mL | solubility at 30 min ([3]; 62.5% (v/v) 2-methoxyethanol in water): 5370 µg/mL | solubility at 30 min ([3]; 62.5% (v/v) 3-methoxy-3-methyl-1-butanol in water): 5930 µg/mL | solubility at 30 min ([3]; 62.5% (v/v) 3-methoxybutanol in water): 4390 µg/mL | solubility at 30 min ([3]; 62.5% (v/v) IPA (isopropyl alcohol) in water): 6310 µg/mL | solubility at 30 min ([3]; 62.5% (v/v) acetonitrile in water): 15800 µg/mL | solubility at 30 min ([3]; 62.5% (v/v) diethylene glycol monomethyl ether in water): 3930 µg/mL | solubility at 30 min ([3]; 62.5% (v/v) dimethyl acetamide in water): 4060 µg/mL | solubility at 30 min ([3]; 62.5% (v/v) dimethyl ether in water): 1930 µg/mL | solubility at 30 min ([3]; 62.5% (v/v) dimethyl formamide in water): 5030 µg/mL | solubility at 30 min ([3]; 62.5% (v/v) dimethyl sulfoxide in water): 7500 µg/mL | solubility at 30 min ([3]; 62.5% (v/v) ethanol in water): 6600 µg/mL | solubility at 30 min ([3]; 62.5% (v/v) methanol in water): 10200 µg/mL | solubility at 30 min ([3]; 62.5% (v/v) n-propanol in water): 12300 µg/mL | solubility at 30 min ([3]; 62.5% (v/v) t-butanol in water): 8650 µg/mL | solubility at 30 min ([3]; 62.5% (v/v) tetrahydrofuran in water): 7220 µg/mL | solubility at 30 min ([3]; 62.5% (v/v) triethylene glycol monomethyl ether in water): 2860 µg/mL | water content (hygroscopicity) ([4]; relative humidity 33%): 5.6% | water content (hygroscopicity) ([4]; relative humidity 51%): 5.9% | color difference (ΔE) [4, 5]: 1.87 | content of residual carbapenem compound [4, 5]: 101.1% | powdery X-ray diffraction pattern [4, 5]: no change | water content [4, 5]: 5.08% | color difference (ΔE) [4, 6]: 2.95 | content of residual carbapenem compound [4, 6]: 100.3% | powdery X-ray diffraction pattern [4, 6]: no change | water content [4, 6]: 5.31% | color difference (ΔE) [4, 7]: 5.01 | content of residual carbapenem compound [4, 7]: 99.9% | powdery X-ray diffraction pattern [4, 7]: no change | water content [4, 7]: 6.18% | color difference (ΔE) [4, 8]: 3.97 | content of residual carbapenem compound [4, 8]: 100.5% | powdery X-ray diffraction pattern [4, 8]: no change | water content [4, 8]: 5.72% | color difference (ΔE) [4, 9]: 6.28 | content of residual carbapenem compound [4, 9]: 100.6% | powdery X-ray diffraction pattern [4, 9]: no change | water content [4, 9]: 6.17% | color difference (ΔE) [4, 10]: 5.85 | content of residual carbapenem compound [4, 10]: 102.0% | powdery X-ray diffraction pattern [4, 10]: no change | water content [4, 10]: 6.29% | color difference (ΔE) [4, 11]: 35.98 | content of residual carbapenem compound [4, 11]: 99.8% | powdery X-ray diffraction pattern [4, 11]: no change | water content [4, 11]: 6.60% | color difference (ΔE) [4, 12]: 4.56 | content of residual carbapenem compound [4, 12]: 100.8% | powdery X-ray diffraction pattern [4, 12]: no change | water content [4, 12]: 6.43% | HPLC impurity [4, 13]: 0.93% | water content [4, 13]: 5.49%
SMILES: C[C@@H](O)[C@H]1C(=O)N2C(C(=O)O)=C(S[C@@H]3CN[C@H]([C@H](O)[C@@H]4CCNC4)C3)[C@H](C)[C@H]12 [monohydrate, (+)-(1R,5S,6S)-6-[(R)-1-Hydroxyethyl]-1-methyl-2-[(2S,4S)-2-[(3R)-pyrrolidine-3-yl-(R)-hydroxymethyl]pyrrolidine-4-yl]thio-1-carbapen-2-em-3-carboxylic acid monohydrochloride monohydrate]
solubility at 30 min ([3]; 62.5% (v/v) 1-acetoxy-2-methyl ethane in water): 4180 µg/mL | solubility at 30 min ([3]; 62.5% (v/v) 2-butoxyethanol in water): 13300 µg/mL
